What was measured:
Aromatase [1] = target: Aromatase (Homo sapiens, UniProt P11511); assay: In vitro inhibition to cytochrome P450 19A1 assayed using human placental microsomes; set-up: species or system Placenta
Aromatase [2] = target: T1, Aromatase (Rattus norvegicus, UniProt P22443); assay: In vivo reduction in serum estradiol in PMSG-primed rats after 2 hr at 5 mg/kg oral dose; format: functional, organism-based; set-up: dose 5 mg/kg, route oral; scale not given: the % may be the effect or the level left
T1 sequence (P22443 whole entry): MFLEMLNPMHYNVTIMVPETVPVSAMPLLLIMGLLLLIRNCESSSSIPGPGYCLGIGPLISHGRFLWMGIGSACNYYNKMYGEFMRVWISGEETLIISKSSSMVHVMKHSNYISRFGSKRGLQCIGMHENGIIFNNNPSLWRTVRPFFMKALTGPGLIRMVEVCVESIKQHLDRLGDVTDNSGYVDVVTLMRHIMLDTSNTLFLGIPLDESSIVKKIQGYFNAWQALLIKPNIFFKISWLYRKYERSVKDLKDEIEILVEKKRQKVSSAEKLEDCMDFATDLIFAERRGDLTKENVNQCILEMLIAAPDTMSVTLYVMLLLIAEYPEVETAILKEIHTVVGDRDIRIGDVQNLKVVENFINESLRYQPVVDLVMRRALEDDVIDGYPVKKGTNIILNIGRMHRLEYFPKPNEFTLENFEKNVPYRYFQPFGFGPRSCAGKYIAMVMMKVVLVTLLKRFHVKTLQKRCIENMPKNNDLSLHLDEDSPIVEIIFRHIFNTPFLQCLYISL

Aromatase [3] = target: T1, Aromatase; assay: In vivo reduction in serum estradiol in PMSG-primed rats after 6 hr at 5 mg/kg oral dose; format: functional, organism-based; set-up: dose 5 mg/kg, route oral; scale not given: the % may be the effect or the level left

Row | SMILES | IC50 (Aromatase [1]) [nM] | Control (Aromatase [2]) [%] | Control (Aromatase [3]) [%]
1 | C=CCSCC[C@]12CCC(=O)C=C1CCC1C2=CC[C@]2(C)C(=O)CCC12 (stereo partly drawn) | 270 | – | –
2 | CSSCC[C@]12CCC(=O)C=C1CCC1C2=CC[C@]2(C)C(=O)CCC12 (stereo partly drawn) | > 1000 | 7 | 23
3 | C[C@]12CC=C3C(CCC4=CC(=O)CC[C@@]43CCSCF)C1CCC2=O (stereo partly drawn) | 50 | 31 | 41
4 | C[C@]12CC=C3C(CCC4=CC(=O)CC[C@@]43CCSSc3ccc([N+](=O)[O-])cc3[N+](=O)[O-])C1CCC2=O (stereo partly drawn) | > 1000 | 27 | 32
5 | CSCC[C@]12CCC(=O)C=C1CCC1C2=CC[C@]2(C)C(=O)CCC12 (stereo partly drawn) | 12 | 51 | 50
6 | C[C@]12CC=C3C(CCC4=CC(=O)CC[C@@]43CCSCCO)C1CCC2=O (stereo partly drawn) | > 1000 | – | –
7 | CCSC(C[C@]12CCC(=O)C=C1CCC1C2=CC[C@]2(C)C(=O)CCC12)SCC (stereo partly drawn) | > 1000 | – | –
8 | C#CSCC[C@]12CCC(=O)C=C1CCC1C2=CC[C@]2(C)C(=O)CCC12 (stereo partly drawn) | 330 | – | –
9 | C[C@]12CC=C3C(CCC4=CC(=O)CC[C@@]43CCI)C1CCC2=O (stereo partly drawn) | > 10000 | – | –
10 | CSCCCC12CCC(=O)C=C1CCC1C2=CC[C@]2(C)C(=O)CCC12 (single isomer, unassigned) | > 10000 | – | –
11 | CN(C)CC[C@]12CCC(=O)C=C1CCC1C2=CC[C@]2(C)C(=O)CCC12 (stereo partly drawn) | > 10000 | – | –
12 | CSCSCC[C@]12CCC(=O)C=C1CCC1C2=CC[C@]2(C)C(=O)CCC12 (stereo partly drawn) | 570 | – | –
13 | C[C@]12CC=C3C(CCC4=CC(=O)CC[C@@]43CCSSc3ccccc3)C1CCC2=O (stereo partly drawn) | > 1000 | 43 | 62
14 | CSC(C[C@]12CCC(=O)C=C1CCC1C2=CC[C@]2(C)C(=O)CCC12)SC (stereo partly drawn) | > 1000 | 18 | 13
15 | C#CCSCC[C@]12CCC(=O)C=C1CCC1C2=CC[C@]2(C)C(=O)CCC12 (stereo partly drawn) | 1000 | 5 | 25
16 | C[C@]12CC=C3C(CCC4=CC(=O)CC[C@@]43CCOS(C)(=O)=O)C1CCC2=O (stereo partly drawn) | > 10000 | – | –
17 | C[C@]12CC=C3C(CCC4=CC(=O)CC[C@@]43CCSC(F)F)C1CCC2=O (stereo partly drawn) | > 1000 | – | –
18 | CSC(=O)C[C@]12CCC(=O)C=C1CCC1C2CC[C@]2(C)C(=O)CCC12 (stereo partly drawn) | 42 | 37 | 49
19 | C[C@]12CC=C3C(CCC4=CC(=O)CC[C@@]43CCSC#N)C1CCC2=O (stereo partly drawn) | > 1000 | 44 | 38
20 | CC(=O)SCC[C@]12CCC(=O)C=C1CCC1C2=CC[C@]2(C)C(=O)CCC12 (stereo partly drawn) | > 10000 | 21 | 10
21 | C[C@]12CC=C3C(CCC4=CC(=O)CC[C@@]43CCSc3ccccc3)C1CCC2=O (stereo partly drawn) | 400 | – | –
22 | C[C@]12CC=C3C(CCC4=CC(=O)CC[C@@]43CCSCCS)C1CCC2=O (stereo partly drawn) | > 1000 | – | –
23 | C[C@]12CC=C3C(CCC4=CC(=O)CC[C@@]43CC[Se]c3ccccc3)C1CCC2=O (stereo partly drawn) | > 1000 | – | –
24 | COCC[C@]12CCC(=O)C=C1CCC1C2=CC[C@]2(C)C(=O)CCC12 (stereo partly drawn) | 10000 | – | –
25 | C=CSCC[C@]12CCC(=O)C=C1CCC1C2=CC[C@]2(C)C(=O)CCC12 (stereo partly drawn) | 50 | 25 | 24
26 | CS[C@]12CCC(=O)C=C1CCC1C2=CC[C@]2(C)C(=O)CCC12 (stereo partly drawn) | 7400 | – | –
27 | C[C@]12CC=C3C(CCC4=CC(=O)CC[C@@]43CCSC3CC3)C1CCC2=O (stereo partly drawn) | > 1000 | – | –
28 | CCSCC[C@]12CCC(=O)C=C1CCC1C2=CC[C@]2(C)C(=O)CCC12 (stereo partly drawn) | 870 | – | –
29 | CSCC[C@]12CCC(=O)C=C1CCC1C2CC[C@]2(C)C(=O)CCC12 (stereo partly drawn) | 22 | 11 | 16

Reference: ChEMBL document CHEMBL1129479, “Structure-activity relationships of a new family of steroidal aromatase inhibitors. 1. Synthesis and evaluation of a series of analogs related to 19-[(methylthio)methyl]androstenedione (RU54115)” (J Med Chem, 1996)
